Experimental data from patent publication US20260242419A1, “A CYCLIC PEPTIDE FOR TRAPPING INTERLEUKIN-1 BETA” (Merck Sharp & Dohme LLC, priority 2023, published 2026).
Like-named read-outs stand apart in the source and are kept apart here. Starred links: 1 amine or outer side, 2 acyl side, 3 side chain; linkers in the order of their positions; H or OH if unused. Non-standard residues stand in square brackets, D forms with d. Residues, ends and D or L forms follow the SMILES beside them. Phe(4-(4-Ac-piperazinyl)) = CC(=O)N1CCN(c2ccc(C[C@H](N)C(=O)O)cc2)CC1; dPro(4R-(4-pyridylmethyl)) = O=C(O)[C@H]1C[C@@H](Cc2ccncc2)CN1; Benzoyl(4-piperazinyl) = O=C(c1ccc(N2CCN([*:1])CC2)cc1)[*:2]; Trp(βS-Me,4-F) = C[C@@H](c1c[nH]c2cccc(F)c12)[C@H](N)C(=O)O; X15 = O=C([C@H]1[C@@H](Cc2ccc(-c3ccnnc3)cc2)CCN1[*:1])[*:2]; Bip(4'-COOH) = N[C@@H](Cc1ccc(-c2ccc(C(=O)O)cc2)cc1)C(=O)O; Ala(1-bicyclo(1.1.1)pentyl) = N[C@@H](CC12CC(C1)C2)C(=O)O; dPro(4R-Bzl(4-F)) = O=C(O)[C@H]1C[C@@H](Cc2ccc(F)cc2)CN1; X4 = O=C([C@H]1[C@@H](Cc2ccncc2)CCN1[*:1])[*:2]; Ala(morpholin-4-yl) = N[C@@H](CN1CCOCC1)C(=O)O; Ala(pyrimidin-5-yl) = N[C@@H](Cc1cncnc1)C(=O)O; Phe(4-COOH) = N[C@@H](Cc1ccc(C(=O)O)cc1)C(=O)O; Ala(4-Pyridazinyl) = N[C@@H](Cc1ccnnc1)C(=O)O; Bip = N[C@@H](Cc1ccc(-c2ccccc2)cc1)C(=O)O; Pro(cis-4-F) = O=C(O)[C@@H]1C[C@H](F)CN1; AEF = NCCOc1ccc(C[C@H](N)C(=O)O)cc1; Dap(CONH2) = NC(=O)NC[C@H](N)C(=O)O; hTyr = N[C@@H](CCc1ccc(O)cc1)C(=O)O; cisHyp = O=C(O)[C@@H]1C[C@H](O)CN1; d(αMeD) = C[C@@](N)(CC(=O)O)C(=O)O; 4Pal = N[C@@H](Cc1ccncc1)C(=O)O; d(αMeS) = C[C@@](N)(CO)C(=O)O; Dab = NCC[C@H](N)C(=O)O; Aib = CC(C)(N)C(=O)O

Biological target: T1, IL-1β (Homo sapiens, UniProt P01584)
T1 construct: purchased BioLegend 579404
Test: IL-6 assay in MRC5 cells: inhibition of IL-1β induced IL-6 secretion (AlphaLISA)
Type: cell-based
Conditions: inhibition of IL-1β induced IL-6 secretion in MRC5 cells, read-out: MRC5 IC50
In short: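 Compound was pre-incubated 1 h at ambient temperature with recombinant human IL-1β at 2λ EC80 before adding human lung fibroblast MRC5 cells (3000/well) in EMEM with 0.025% BSA. After overnight culture at 37 °C, 5% CO2, secreted IL-6 in conditioned medium was measured by AlphaLISA; IC50 from 4-parameter logistic fits.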

[1] = compound pre-incubated 1 hour with recombinant human IL-1β

T1 sequence (P01584 117-269): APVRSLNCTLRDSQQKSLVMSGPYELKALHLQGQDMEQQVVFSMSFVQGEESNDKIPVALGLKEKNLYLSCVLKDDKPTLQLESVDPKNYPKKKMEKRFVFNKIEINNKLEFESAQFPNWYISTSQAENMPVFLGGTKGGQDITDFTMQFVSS

Compound | IC50 [1] | IC50
C[C@@H](c1c[nH]c2cccc(F)c12)[C@@H]1NC(=O)[C@@H]2C[C@H](O)CN2C(=O)CNC(=O)[C@H](Cc2ccc(C(=O)O)cc2)NC(=O)[C@H](Cc2ccncc2)NC(=O)[C@H](Cc2ccc(-c3ccccc3)cc2)NC(=O)[C@H]2C[C@@H](Cc3ccncc3)CN2C(=O)CNC(=O)[C@H](CCN)NC(=O)[C@H](CCC(N)=O)NC(=O)[C@H](Cc2cncnc2)NC(=O)[C@@](C)(CC(=O)O)NC(=O)[C@H](Cc2c[nH]c3ccccc23)NC(=O)[C@H](CO)NC(=O)C(C)(C)NC1=O [Example 264] (cyclo([Bip][4Pal][Phe(4-COOH)]G[cisHyp][Trp(βS-Me,4-F)][Aib]SW[d(αMeD)][Ala(pyrimidin-5-yl)]Q[Dab]G[dPro(4R-(4-pyridylmethyl))])) | 0.017 nM | –
C[C@@H](c1c[nH]c2cccc(F)c12)[C@@H]1NC(=O)[C@@H]2C[C@H](F)CN2C(=O)CNC(=O)[C@H](Cc2ccc(C(=O)O)cc2)NC(=O)[C@H](Cc2ccncc2)NC(=O)[C@H](Cc2ccc(-c3ccccc3)cc2)NC(=O)[C@H]2C[C@@H](Cc3ccncc3)CN2C(=O)CNC(=O)[C@H](CNC(N)=O)NC(=O)[C@H](CCC(N)=O)NC(=O)[C@@H](CCCCN)NC(=O)[C@@](C)(CC(=O)O)NC(=O)[C@H](Cc2c[nH]c3ccccc23)NC(=O)[C@H](CO)NC(=O)C(C)(C)NC1=O [Example 244] (cyclo([Bip][4Pal][Phe(4-COOH)]G[Pro(cis-4-F)][Trp(βS-Me,4-F)][Aib]SW[d(αMeD)][dK]Q[Dap(CONH2)]G[dPro(4R-(4-pyridylmethyl))])) | 0.03 nM | –
C[C@@H](c1c[nH]c2cccc(F)c12)[C@@H]1NC(=O)[C@@H]2C[C@H](F)CN2C(=O)CNC(=O)[C@H](Cc2ccc(C(=O)O)cc2)NC(=O)[C@H](Cc2ccncc2)NC(=O)[C@H](Cc2ccc(-c3ccc(C(=O)O)cc3)cc2)NC(=O)[C@H]2[C@@H](Cc3ccc(-c4ccnnc4)cc3)CCN2C(=O)CNC(=O)[C@H](CCN)NC(=O)[C@H](CCC(N)=O)NC(=O)[C@H](Cc2cncnc2)NC(=O)C(C)(C)NC(=O)[C@H](Cc2c[nH]c3ccccc23)NC(=O)[C@H](CCC(=O)O)NC(=O)C(C)(C)NC1=O [Example 58] (cyclo([Bip(4'-COOH)][4Pal][Phe(4-COOH)]G[Pro(cis-4-F)][Trp(βS-Me,4-F)][Aib]EW[Aib][Ala(pyrimidin-5-yl)]Q[Dab]G[X15])) | – | 0.037 nM
C[C@@H](c1c[nH]c2cccc(F)c12)[C@@H]1NC(=O)[C@@H]2C[C@H](F)CN2C(=O)CNC(=O)[C@H](Cc2ccc(C(=O)O)cc2)NC(=O)[C@H](Cc2ccncc2)NC(=O)[C@H](Cc2ccc(-c3ccc(C(=O)O)cc3)cc2)NC(=O)[C@H]2C[C@@H](Cc3ccc(F)cc3)CN2C(=O)CNC(=O)[C@H](CCN)NC(=O)[C@H](CCC(N)=O)NC(=O)[C@H](Cc2ccnnc2)NC(=O)[C@@](C)(CC(=O)O)NC(=O)[C@H](Cc2c[nH]c3ccccc23)NC(=O)[C@H](CO)NC(=O)C(C)(C)NC1=O [Example 322] (cyclo([Bip(4'-COOH)][4Pal][Phe(4-COOH)]G[Pro(cis-4-F)][Trp(βS-Me,4-F)][Aib]SW[d(αMeD)][Ala(4-Pyridazinyl)]Q[Dab]G[dPro(4R-Bzl(4-F))])) | – | 0.013 nM
C[C@@H](c1c[nH]c2cccc(F)c12)[C@@H]1NC(=O)[C@@H]2C[C@H](F)CN2C(=O)CNC(=O)[C@H](Cc2ccc(C(=O)O)cc2)NC(=O)[C@H](Cc2ccncc2)NC(=O)[C@H](Cc2ccc(OCCNC(=O)c3ccc(N4CCNCC4)cc3)cc2)NC(=O)[C@H]2C[C@@H](Cc3ccncc3)CN2C(=O)CNC(=O)[C@H](CCN)NC(=O)[C@H](CCC(N)=O)NC(=O)[C@H](Cc2cncnc2)NC(=O)C(C)(C)NC(=O)[C@H](Cc2c[nH]c3ccccc23)NC(=O)[C@H](CO)NC(=O)C(C)(C)NC1=O [Example 306] (cyclo([AEF](Benzoyl(4-piperazinyl))[4Pal][Phe(4-COOH)]G[Pro(cis-4-F)][Trp(βS-Me,4-F)][Aib]SW[Aib][Ala(pyrimidin-5-yl)]Q[Dab]G[dPro(4R-(4-pyridylmethyl))])) | – | 0.02 nM
CC(=O)N1CCN(c2ccc(C[C@@H]3NC(=O)[C@H]4C[C@@H](Cc5ccncc5)CN4C(=O)CNC(=O)[C@H](CCN)NC(=O)[C@H](CCC(N)=O)NC(=O)[C@H](Cc4cncnc4)NC(=O)[C@@](C)(CO)NC(=O)[C@H](Cc4c[nH]c5ccccc45)NC(=O)[C@H](CO)NC(=O)C(C)(C)NC(=O)[C@H]([C@@H](C)c4c[nH]c5cccc(F)c45)NC(=O)[C@@H]4C[C@H](F)CN4C(=O)CNC(=O)[C@H](Cc4ccc(C(=O)O)cc4)NC(=O)[C@H](Cc4ccncc4)NC3=O)cc2)CC1 [Example 350] (cyclo([Phe(4-(4-Ac-piperazinyl))][4Pal][Phe(4-COOH)]G[Pro(cis-4-F)][Trp(βS-Me,4-F)][Aib]SW[d(αMeS)][Ala(pyrimidin-5-yl)]Q[Dab]G[dPro(4R-(4-pyridylmethyl))])) | – | 0.02 nM
C[C@@H](c1c[nH]c2cccc(F)c12)[C@@H]1NC(=O)[C@@H]2C[C@H](F)CN2C(=O)CNC(=O)[C@H](Cc2ccc(C(=O)O)cc2)NC(=O)[C@H](Cc2ccncc2)NC(=O)[C@H](Cc2ccc(-c3ccc(C(=O)O)cc3)cc2)NC(=O)[C@H]2[C@@H](Cc3ccncc3)CCN2C(=O)CNC(=O)[C@H](CCN)NC(=O)[C@H](CCC(N)=O)NC(=O)[C@H](CCc2ccc(O)cc2)NC(=O)[C@@](C)(CC(=O)O)NC(=O)[C@H](Cc2c[nH]c3ccccc23)NC(=O)[C@H](CO)NC(=O)C(C)(C)NC1=O [Example 219] (cyclo([Bip(4'-COOH)][4Pal][Phe(4-COOH)]G[Pro(cis-4-F)][Trp(βS-Me,4-F)][Aib]SW[d(αMeD)][hTyr]Q[Dab]G[X4])) | – | 0.018 nM
C[C@@H](c1c[nH]c2cccc(F)c12)[C@@H]1NC(=O)[C@@H]2C[C@H](F)CN2C(=O)CNC(=O)[C@H](Cc2ccc(C(=O)O)cc2)NC(=O)[C@H](Cc2ccncc2)NC(=O)[C@H](Cc2ccc(-c3ccc(C(=O)O)cc3)cc2)NC(=O)[C@H]2C[C@@H](Cc3ccncc3)CN2C(=O)CNC(=O)[C@H](CCN)NC(=O)[C@H](CCC(N)=O)NC(=O)[C@H](Cc2cncnc2)NC(=O)C(C)(C)NC(=O)[C@H](Cc2c[nH]c3ccccc23)NC(=O)[C@H](CCC(=O)O)NC(=O)C(C)(C)NC1=O [Example 14] (cyclo([Bip(4'-COOH)][4Pal][Phe(4-COOH)]G[Pro(cis-4-F)][Trp(βS-Me,4-F)][Aib]EW[Aib][Ala(pyrimidin-5-yl)]Q[Dab]G[dPro(4R-(4-pyridylmethyl))])) | – | 0.035 nM
C[C@@H](c1c[nH]c2cccc(F)c12)[C@@H]1NC(=O)[C@@H]2C[C@H](F)CN2C(=O)CNC(=O)[C@H](Cc2ccc(C(=O)O)cc2)NC(=O)[C@H](CC23CC(C2)C3)NC(=O)[C@H](Cc2ccc(-c3ccc(C(=O)O)cc3)cc2)NC(=O)[C@H]2C[C@@H](Cc3ccncc3)CN2C(=O)CNC(=O)[C@H](CO)NC(=O)[C@H](CCC(N)=O)NC(=O)[C@H](CN2CCOCC2)NC(=O)C(C)(C)NC(=O)[C@H](Cc2c[nH]c3ccccc23)NC(=O)[C@H](CO)NC(=O)C(C)(C)NC1=O [Example 179] (cyclo([Bip(4'-COOH)][Ala(1-bicyclo(1.1.1)pentyl)][Phe(4-COOH)]G[Pro(cis-4-F)][Trp(βS-Me,4-F)][Aib]SW[Aib][Ala(morpholin-4-yl)]QSG[dPro(4R-(4-pyridylmethyl))])) | – | 0.029 nM
